Key:
[1] = target: T1, Neuropeptide Y receptor type 1 (Homo sapiens, UniProt P25929)
T1 sequence (P25929 whole entry): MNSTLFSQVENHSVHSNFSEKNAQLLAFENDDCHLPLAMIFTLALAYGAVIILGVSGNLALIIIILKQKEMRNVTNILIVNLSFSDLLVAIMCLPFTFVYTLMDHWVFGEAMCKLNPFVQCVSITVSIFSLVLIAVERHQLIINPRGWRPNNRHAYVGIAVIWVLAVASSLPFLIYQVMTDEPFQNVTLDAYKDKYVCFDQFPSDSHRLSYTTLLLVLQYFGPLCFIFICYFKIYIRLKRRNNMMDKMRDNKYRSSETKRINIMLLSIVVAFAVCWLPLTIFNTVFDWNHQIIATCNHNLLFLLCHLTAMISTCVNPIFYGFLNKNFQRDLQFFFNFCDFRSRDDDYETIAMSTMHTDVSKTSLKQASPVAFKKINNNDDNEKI

[2] = target: Growth hormone secretagogue receptor type 1 (Homo sapiens, UniProt Q92847)
Chain of Growth hormone secretagogue receptor type 1 (Q92847 whole entry): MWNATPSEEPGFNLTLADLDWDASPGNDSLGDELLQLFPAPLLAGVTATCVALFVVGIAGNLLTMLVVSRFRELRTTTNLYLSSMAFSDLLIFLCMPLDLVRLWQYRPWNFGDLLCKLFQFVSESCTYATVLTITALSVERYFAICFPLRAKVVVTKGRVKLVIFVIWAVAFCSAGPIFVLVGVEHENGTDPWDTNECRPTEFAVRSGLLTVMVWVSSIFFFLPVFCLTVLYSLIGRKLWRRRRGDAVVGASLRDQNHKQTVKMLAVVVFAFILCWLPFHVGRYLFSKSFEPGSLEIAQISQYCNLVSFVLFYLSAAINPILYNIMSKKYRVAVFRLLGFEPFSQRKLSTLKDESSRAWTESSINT

[3] = target: T2, Alpha-2A adrenergic receptor (Homo sapiens, UniProt P08913); format: functional, cell-based
T2 sequence (P08913 whole entry): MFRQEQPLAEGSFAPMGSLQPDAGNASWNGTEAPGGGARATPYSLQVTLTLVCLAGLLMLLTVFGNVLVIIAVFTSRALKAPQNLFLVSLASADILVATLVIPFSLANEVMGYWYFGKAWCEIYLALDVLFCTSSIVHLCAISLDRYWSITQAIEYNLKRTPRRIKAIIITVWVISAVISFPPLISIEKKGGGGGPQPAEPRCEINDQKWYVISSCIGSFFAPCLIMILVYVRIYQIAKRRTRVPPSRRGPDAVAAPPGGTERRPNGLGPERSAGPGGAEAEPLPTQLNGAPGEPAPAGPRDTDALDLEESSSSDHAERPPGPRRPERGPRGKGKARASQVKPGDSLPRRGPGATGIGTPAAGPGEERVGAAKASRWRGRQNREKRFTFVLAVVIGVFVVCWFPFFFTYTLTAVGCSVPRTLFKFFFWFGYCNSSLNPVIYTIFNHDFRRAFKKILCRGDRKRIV

[4] = target: T3, Equilibrative nucleoside transporter 1 (Homo sapiens, UniProt Q99808)
T3 sequence (Q99808 whole entry): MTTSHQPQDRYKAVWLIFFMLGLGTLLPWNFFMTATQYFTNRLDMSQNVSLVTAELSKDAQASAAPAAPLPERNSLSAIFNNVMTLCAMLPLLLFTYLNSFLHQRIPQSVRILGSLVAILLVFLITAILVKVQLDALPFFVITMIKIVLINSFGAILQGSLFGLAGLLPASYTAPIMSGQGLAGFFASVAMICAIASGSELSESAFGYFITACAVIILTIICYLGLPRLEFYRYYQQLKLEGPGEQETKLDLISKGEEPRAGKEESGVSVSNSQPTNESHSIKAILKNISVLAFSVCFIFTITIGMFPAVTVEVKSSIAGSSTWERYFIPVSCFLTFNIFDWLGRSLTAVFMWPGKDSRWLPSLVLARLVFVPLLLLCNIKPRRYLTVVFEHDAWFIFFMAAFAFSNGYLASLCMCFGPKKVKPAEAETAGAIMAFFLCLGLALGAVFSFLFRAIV

Cannabinoid receptor 1 = Cannabinoid receptor 1 (Homo sapiens, UniProt P21554); format: functional, cell-based
Chain of Cannabinoid receptor 1 (P21554 whole entry): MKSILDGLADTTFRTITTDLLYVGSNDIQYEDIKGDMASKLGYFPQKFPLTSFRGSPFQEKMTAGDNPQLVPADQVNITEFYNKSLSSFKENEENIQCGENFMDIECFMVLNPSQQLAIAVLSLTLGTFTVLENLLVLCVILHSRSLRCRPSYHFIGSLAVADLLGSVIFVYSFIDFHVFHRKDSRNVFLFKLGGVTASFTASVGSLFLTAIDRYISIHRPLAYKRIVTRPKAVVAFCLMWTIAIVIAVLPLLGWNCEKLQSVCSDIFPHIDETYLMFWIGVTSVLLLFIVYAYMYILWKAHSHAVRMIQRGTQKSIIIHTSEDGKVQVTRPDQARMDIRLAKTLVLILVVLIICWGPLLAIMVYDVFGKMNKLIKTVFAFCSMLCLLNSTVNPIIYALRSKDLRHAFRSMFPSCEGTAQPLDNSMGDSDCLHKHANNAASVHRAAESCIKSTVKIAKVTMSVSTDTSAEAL

[5] = target: T4, Amine oxidase [flavin-containing] A (Homo sapiens, UniProt P21397); format: functional
T4 sequence (P21397 whole entry): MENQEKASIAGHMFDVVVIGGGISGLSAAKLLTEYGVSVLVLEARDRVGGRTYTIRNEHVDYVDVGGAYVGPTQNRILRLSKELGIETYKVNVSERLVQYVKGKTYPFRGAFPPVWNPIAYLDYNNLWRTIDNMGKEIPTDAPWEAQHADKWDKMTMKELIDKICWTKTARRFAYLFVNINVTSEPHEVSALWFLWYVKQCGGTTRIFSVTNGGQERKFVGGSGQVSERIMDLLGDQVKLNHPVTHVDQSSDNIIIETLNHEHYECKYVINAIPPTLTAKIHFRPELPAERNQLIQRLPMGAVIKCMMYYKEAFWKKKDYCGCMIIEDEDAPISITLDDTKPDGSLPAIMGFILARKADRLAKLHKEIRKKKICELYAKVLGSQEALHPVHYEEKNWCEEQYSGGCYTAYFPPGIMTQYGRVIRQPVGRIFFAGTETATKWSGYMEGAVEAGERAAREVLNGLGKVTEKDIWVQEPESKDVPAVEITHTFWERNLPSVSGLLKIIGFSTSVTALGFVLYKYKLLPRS

[6] = target: T5, Alpha-1A adrenergic receptor (Homo sapiens, UniProt P35348); format: functional, cell-based
T5 sequence (P35348 whole entry): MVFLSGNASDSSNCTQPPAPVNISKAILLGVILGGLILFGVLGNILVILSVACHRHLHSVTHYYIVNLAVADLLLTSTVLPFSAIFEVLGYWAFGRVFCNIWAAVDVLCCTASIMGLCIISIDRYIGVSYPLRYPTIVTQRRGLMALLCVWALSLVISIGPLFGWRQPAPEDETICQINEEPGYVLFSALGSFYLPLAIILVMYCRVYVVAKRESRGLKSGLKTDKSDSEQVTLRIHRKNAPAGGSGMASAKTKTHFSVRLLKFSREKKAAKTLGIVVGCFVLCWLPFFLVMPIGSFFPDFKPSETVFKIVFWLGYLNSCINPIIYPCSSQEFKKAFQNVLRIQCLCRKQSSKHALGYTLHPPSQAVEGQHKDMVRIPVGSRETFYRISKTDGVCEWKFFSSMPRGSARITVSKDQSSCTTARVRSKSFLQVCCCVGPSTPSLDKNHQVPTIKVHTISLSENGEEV
Note: assay procedure not described here.

| Structure (SMILES) | AC50 [1] [µM] | AC50 [2] [µM] | AC50 [3] [µM] | AC50 [4] [µM] | AC50 (Cannabinoid receptor 1) [µM] | AC50 [5] [µM] | AC50 [6] [µM] |
| --- | --- | --- | --- | --- | --- | --- | --- |
| COC(=O)C1=C(C)NC(C)=C(C(=O)OC2CCCN(Cc3ccccc3)C2)C1c1cccc([N+](=O)[O-])c1 (stereo unspecified) [BENIDIPINE] | > 30 | 26 | > 30 | 8.2 | > 30 | > 30 | 4.5 |
| CO/N=C(\C(=O)N[C@@H]1C(=O)N2C(C(=O)O)=C(CSc3nnnn3C)CS[C@H]12)c1csc(N)n1 [CEFMENOXIME] | > 30 | > 30 | > 30 | > 30 | > 30 | > 30 | > 30 |
| CCN1CCN(C(=O)N[C@@H](C(=O)N[C@@H]2C(=O)N3C(C(=O)O)=C(CSc4nnnn4C)CS[C@H]23)c2ccc(O)cc2)C(=O)C1=O [CEFOPERAZONE] | > 30 | > 30 | > 30 | > 30 | > 30 | > 30 | > 30 |
| COc1ccc2c3c1O[C@H]1[C@@H](O)C=C[C@H]4[C@@H](C2)N(C)CC[C@@]341 [CODEINE] | > 30 | > 30 | > 10 | > 30 | > 30 | > 10 | > 30 |
| C#C[C@]1(O)CC[C@H]2[C@@H]3CCC4=Cc5oncc5C[C@]4(C)[C@H]3CC[C@@]21C [DANAZOL] | > 10 | > 10 | > 10 | > 10 | > 30 | > 10 | > 30 |
| CC(=O)OCC(=O)[C@@]12N=C(C)O[C@@H]1C[C@H]1[C@@H]3CCC4=CC(=O)C=C[C@]4(C)[C@H]3[C@@H](O)C[C@@]12C [DEFLAZACORT] | > 30 | > 30 | > 30 | > 30 | > 30 | > 30 | > 30 |
| CC1(C)O[C@@H]2C[C@H]3[C@@H]4CCC5=CC(=O)C=C[C@]5(C)[C@H]4[C@@H](O)C[C@]3(C)[C@]2(C(=O)CO)O1 [DESONIDE] | > 10 | > 10 | > 10 | > 10 | > 30 | > 10 | > 30 |
| Cn1c(=O)c2c(ncn2CC2OCCO2)n(C)c1=O [DOXOFYLLINE] | > 30 | > 30 | > 30 | > 30 | > 30 | > 30 | > 30 |
| CCCCc1ncc(/C=C(\Cc2cccs2)C(=O)O)n1Cc1ccc(C(=O)O)cc1 [EPROSARTAN] | > 10 | > 10 | > 10 | > 10 | > 30 | > 10 | > 30 |
| CCCCCCOc1ccccc1C(N)=O [EXALAMIDE] | > 30 | > 30 | 13 | > 30 | > 30 | > 30 | > 30 |
| CCC(C(=O)O)c1ccc(N2Cc3ccccc3C2=O)cc1 (stereo unspecified) [INDOBUFEN] | > 30 | > 30 | > 30 | > 30 | > 30 | > 30 | > 30 |
| CC(C)OC(=O)CCC/C=C\C[C@@H]1[C@@H](CC[C@@H](O)CCc2ccccc2)[C@H](O)C[C@@H]1O [LATANOPROST] | > 30 | > 30 | > 30 | > 30 | > 30 | > 30 | > 30 |
| CN1C(=O)C(O)N=C(c2ccccc2Cl)c2cc(Cl)ccc21 (stereo unspecified) [LORMETAZEPAM] | > 30 | > 30 | 16 | > 30 | > 30 | > 30 | > 30 |
| CCC1(CC)C(=O)NCC(C)C1=O (stereo unspecified) [METHYPRYLON] | > 30 | > 30 | > 30 | > 30 | > 30 | > 30 | > 30 |
| OC(CNCC(O)C1CCc2cc(F)ccc2O1)C1CCc2cc(F)ccc2O1 (stereo unspecified) [NEBIVOLOL] | 24 | 4.6 | > 30 | > 30 | > 30 | > 30 | > 30 |
| CCCc1nc(C(C)(C)O)c(C(=O)OCc2oc(=O)oc2C)n1Cc1ccc(-c2ccccc2-c2nnn[nH]2)cc1 [OLMESARTAN MEDOXOMIL] | > 10 | > 50 | > 10 | > 50 | > 30 | > 10 | > 30 |
| COc1ccc2c3c1O[C@H]1C(=O)CC[C@@]4(O)[C@@H](C2)N(C)CC[C@]314 [OXYCODONE] | > 30 | > 30 | > 30 | > 30 | > 30 | > 30 | > 30 |
| CC[C@@H]1C(=O)OC[C@@H]1Cc1cncn1C [PILOCARPINE] | > 30 | > 30 | > 10 | > 30 | > 30 | > 10 | > 30 |
| CN1CCC(=C2c3ccccc3CCc3sccc32)CC1 [PIZOTYLINE] | > 30 | > 30 | > 30 | > 30 | > 30 | > 10 | > 30 |
| CN1C(=O)C(O)N=C(c2ccccc2)c2cc(Cl)ccc21 (stereo unspecified) [TEMAZEPAM] | > 30 | > 30 | > 10 | > 30 | > 30 | > 10 | > 30 |
| CCN(CC)C(=O)N[C@H]1C[C@@H]2c3cccc4[nH]cc(c34)C[C@H]2N(C)C1 [TERGURIDE] | > 30 | > 30 | > 30 | > 30 | > 30 | > 30 | > 30 |
| CC(CC(c1ccccc1)c1ccccc1)NC(C)(C)C (stereo unspecified) [TERODILINE] | > 30 | > 30 | > 30 | > 30 | > 30 | > 30 | > 30 |
| CN1CCN(CC/C=C2/c3ccccc3Sc3ccc(S(=O)(=O)N(C)C)cc32)CC1 [THIOTHIXENE] | > 30 | 25.3 | > 10 | > 30 | > 30 | > 10 | > 30 |

From ChEMBL document CHEMBL5291721, “A preclinical secondary pharmacology resource illuminates target-adverse drug reaction associations of marketed drugs” (Nat Commun, 2023)
